Measurements reported in US20230137943A1, “PHOTOPROXIMITY PROFILING OF PROTEIN-PROTEIN INTERACTIONS IN CELLS” (The University of Chicago, priority 2019, published 2023).

Key:
[1] = molecular target: T1, recombinant SNAP-Tag protein (Homo sapiens, UniProt P16455, A127T/A154D/C150Q/C62A/E30R/G131K/G132T/G153L/K125A/K32I/L33F/M134L/N157G/Q115S/Q116H/R128A/R135S/S151G/S152D/S159E); assay: In vitro photocleavage assay (in-gel fluorescence); assay type: biochemical; conditions: recombinant SNAP-Tag labeled with probe, 0-10 minutes irradiation
T1 construct: His6 (N)
T1 sequence (P16455 1-182 E30R/K32I/L33F/C62A/Q115S/Q116H/K125A/A127T/R128A/G131K/G132T/M134L/R135S/C150Q/S151G/S152D/G153L/A154D/N157G/S159E): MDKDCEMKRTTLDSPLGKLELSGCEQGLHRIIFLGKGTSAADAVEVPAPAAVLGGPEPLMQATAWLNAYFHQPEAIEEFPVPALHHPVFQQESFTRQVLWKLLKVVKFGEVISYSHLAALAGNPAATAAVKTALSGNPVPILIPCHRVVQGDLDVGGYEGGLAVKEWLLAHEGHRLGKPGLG
Experimental: In vitro photocleavage assay: Recombinant purified His6-SNAP-Tag (20 μg) was incubated in 200 μL DPBS containing 5 μM PP1 for 1 hour at 37° C. Afterward, the reaction was divided into six 30 μL aliquots, placed on ice, and irradiated with 365 nm light using a SPECTROLINKER™ XL-1500a UV crosslinker (Spectroline, Spectronics, Corporation, Westbury, N.Y., United States of America). Samples were successively removed from irradiation after 0, 0.5, 1, 2.5, 5, 10 minutes of irradiation, diluted with loading buffer, and run on SDS-PAGE gel. Photocleavage was judged by in-gel fluorescence visualized using a ChemiDoc imaging system (Bio-Rad Laboratories, Hercules, Calif., United States of America) scanning for fluorescein.
A first generation P3 chemical proteomic method was designed to facilitate several activities, including: 1) specific probe labeling of POIs in live cells; 2) spatial and temporal control of probe photoactivation and proximal labeling; 3) subsequent enrichment and identification of labeled proteins after cell lysis. […] The BnG targeting element is connected to dual photoreactive elements, a central substituted nitroveratryl carbamate, and a tethered diazirine, which upon irradiation with 365 nm light will simultaneously trigger cleavage and diffusion of the probe away from the SNAP-Tag-POI, as well as unmasking of a highly reactive carbene, respectively. […]

[2] = molecular target: T2, SNAP-FLAG/α-FLAG antibody complex (Homo sapiens, UniProt P16455, A127T/A154D/C150Q/C62A/E30R/G131K/G132T/G153L/K125A/K32I/L33F/M134L/N157G/Q115S/Q116H/R128A/R135S/S151G/S152D/S159E); assay: Proximity-labeling assay in cell lysate (anti-biotin / anti-mouse Western blot); assay type: biochemical; conditions: 500 nM probe
T2 construct: host or cells: clarified lysate of HEK293T cells transiently or stably expressing SnapFlag
T2 sequence (P16455 1-182 E30R/K32I/L33F/C62A/Q115S/Q116H/K125A/A127T/R128A/G131K/G132T/M134L/R135S/C150Q/S151G/S152D/G153L/A154D/N157G/S159E limits assumed): T1 sequence (P16455 1-182 E30R/K32I/L33F/C62A/Q115S/Q116H/K125A/A127T/R128A/G131K/G132T/M134L/R135S/C150Q/S151G/S152D/G153L/A154D/N157G/S159E)
Experimental: Proximity-labeling assays: Clarified cell lysate from HEK293T cells either transiently (see FIG. 4B) or stably (see FIG. 4C) expressing SNAP-Tag (NEB #N9183S; New England Biolabs, Ipswich, Mass., United States of America) or SnapFlag was normalized to 1 mg/mL and 250 μL aliquots incubated in a microcentrifuge tube with either 500 nM of PP1. PP2, or DMSO for 1 hour at 37° C. Washed anti-FLAG M2 affinity gel, 40 μL of a 50% slurry, was transferred to each reaction in 750 μL of DPBS and the resultant suspension left to rotate overnight at 4° C. (Sigma #A2220; Sigma-Aldrich, St. Louis, Mo., United States of America). Samples were then spun down at 4000×g, supernatant aspirated, and the resin washed with 1M urea in DPBS (1 mL×8) followed by DPBS (1 mL). After being resuspended in 100 μL of DPBS, the samples were placed on ice where they were irradiated with 365 nm light for 10 minutes (SPECTROLINKER™ XL-1500a UV crosslinker, Spectronics Corporation, Westbury, N.Y., United States of America). Once irradiated, the beads were washed with 100 mM pH 3.5 glycine buffer (100 μL×2) and DPBS (1 mL). To elute the remaining SNAP-FLAG and resin-bound FLAG-antibody the beads were boiled for 5 minutes at 95° C. in 20 μL 4×-loading buffer containing 8% SDS and 400 mM DTT. After which, 60 μL of DPBS was added and the suspension boiled at 95° C. for an additional 5 minutes. The samples were then run on SDS-PAGE gel and transferred to nitrocellulose where they were stained with anti-mouse IR dye (Li-cor #926-68072; Li-cor Biosciences, Lincoln, Nebr., United States of America) and streptavidin IR dye (Li-cor #926-32230; Li-cor Biosciences, Lincoln, Nebr., United States of America). Bands corresponding to biotinylated proteins and the FLAG antibody were visualized using an Odyssey infrared imager (Li-cor Biosciences, Lincoln, Nebr., United States of America).
To study if proximal protein interactors could be labeled in response to the dual photoactivation of PP1 in vitro, the interaction between SNAP-FLAG protein and an α-FLAG monoclonal antibody (mAb) was examined in cell lysate. In this assay, proximal biotinylation of both heavy and light chains of the antibody was expected, as well as self-labeling of the SNAP-FLAG protein, under conditions where the protein complex is formed and the PP1 probe is photoactivated. To test this hypothesis in the presence and absence of the protein-protein complex, SNAP protein that contained or lacked the FLAG epitope was treated with PP1 probe, followed by incubation with α-FLAG mAb, bead-based pulldown of the complexes, and subsequent photoactivation. […] The requirement for photoactivation of PP1, as well as a related probe PP2 (see FIG. 6) was tested by forming the SNAP-FLAG/α-FLAG complexes, and then comparing protein biotinylation with or without irradiation.
To study if proximal protein interactors could be labeled in response to the dual photoactivation of AC1 (see FIG. 12A) in vitro, the interaction between SNAP-FLAG protein and an α-FLAG monoclonal antibody (mAb) was examined in cell lysate. Briefly, 250 μL aliquots of cell lysate (HEK293T, SNAP-Flag) was incubated in a microcentrifuge tube with either 500 nM of photoprobe, or DMSO for 1 hour at 37° C. Washed anti-FLAG M2 affinity gel, 40 μL of a 50% slurry, was transferred to each reaction in 750 μL of DPBS and the resultant suspension left to rotate overnight at 4° C. (Sigma #A2220; Sigma-Aldrich, St. Louis, Mo., United States of America). Samples were then spun down at 4000×g, supernatant aspirated, and the resin washed with 1M urea in DPBS (1 mL×8) followed by DPBS (1 mL). After being resuspended in 250 μL of DPBS, the +UV samples were placed on ice where they were irradiated with 365 nm light for 10 minutes (SPECTROLINKER™ XL-1500a UV crosslinker, Spectronics Corporation, Westbury, N.Y., United States of America). Once irradiated, the beads were washed with 1 M Urea (1 mL×2) and DPBS (1 mL×2). […]

Proximal labeling of heavy/light chain without irradiation ([2]; not exposed to 365 nm light (FIG. 4C)) | SMILES | Fluorescence of labeled protein after irradiation at 365 nm (photocleavage) [1] | Proximal labeling of heavy and light chains upon irradiation ([2]; 365 nm light 10 minutes (FIG. 4C, FIG. 12B))
 | COc1cc(C(C)OC(=O)NCCNC(=S)Nc2ccc3c(c2)C2(OC3=O)c3ccc(O)cc3Oc3cc(O)ccc32)c([N+](=O)[O-])cc1OCCCC(=O)NCc1ccc(COc2nc(N)nc3[nH]cnc23)cc1 (stereo not drawn) [PF-BnG] | complete loss of fluorescence within minutes | 
No proximal labeling | COc1cc(C(C)OC(=O)NCCCCC(NC(=O)CCC2(C)N=N2)C(=O)NCCNC(=O)CCCCC2SCC3NC(=O)NC32)c([N+](=O)[O-])cc1OCCCC(=O)NCCOCCOC(=O)NCc1ccc(COc2nc(N)nc3[nH]cnc23)cc1 (stereo not drawn) [PP2] |  | a discrete biotinylated band was formed on both heavy and light chains
